Patent US5246949A, “Preparation for endermism containing dopamine derivatives” (Sansho Co., Ltd., priority 1989, dated 1993)
Counter-ions that a name gives are not always drawn. Like-named read-outs stand apart in the source and are kept apart here.

Key:
[1] = in vitro skin permeability test (horizontal membrane type in vitro diffusion cell, HPLC determination); settings: for skin permeability on adding a lactic acid ester: Test Example 1, FIG. 1; for skin permeability on adding a higher alcohol: Test Examples 5 to 8, FIGS. 5 to 8, 10% by weight
Experimental: 100 mg of each dopamine derivative hydrochloride as shown in Table 1 was weighed and 900 mg of propylene glycol was added thereto to obtain a solution or suspension containing 10% by weight of each dopamine derivative hydrochloride. These solutions and suspensions were referred to as comparative samples a to e, respectively.
Then 50 mg (in the cases of invention samples A to D) or 100 mg (in the cases of invention samples E to H) of each lactic acid ester or fatty acid monoglyceride as shown in Table 1 was added thereto. Further, propylene glycol was added to make the total amount 1000 mg. Thus, a solution or suspension containing 10% by weight of each dopamine derivative hydrochloride was obtained. These solutions and suspensions were referred to as invention samples A to H.
100 mg of each dopamine derivative hydrochloride as shown in Table 2 was weighed and 900 mg of polyethylene glycol 400 was added thereto. Thus a solution or suspension containing 10% by weight of each dopamine derivative hydrochloride was obtained. These solutions and suspensions were referred to as comparative samples f to i respectively.
Further polyethylene […] was added thereto to make the total amount 1000 mg. Thus, a solution or suspension containing 10% by weight of each dopamine derivative hydrochloride was prepared. These solutions and suspensions were referred to as invention samples I to N, respectively.
The abdominal hair of a male Wister rat, weighing 170 to 200 g and 7 weeks of age, was removed under anesthesia. […] Next, the whole abdominal skin was cleansed with 70% ethanol and then peeled off under anesthesia.
The peeled skin was fixed on the lid of a horizontal membrane type in vitro diffusion cell (penetration area: 7.54 cm^2) in such a manner that the epidermis served as the donor face. As a receiver solution, 50 ml of physiological saline solution or a 30% aqueous solutioh of polyethylene glycol 400 was employed. On the donor side, 0.5 g of a solution of each sample was applied by adding dropwise. Then the lid was fixed in a receptor while paying attention so no bubbles remained in the derm side, followed by storing it in an incubator maintained at 32° C. The receptor solution was stirred with a stirrer and 0.5 ml portions thereof were collected with the lapse of time so as to determine the dopamine derivative contained therein. The determination was effected by high performance liquid chromatography. (iii) Test Results

[2] = oral or percutaneous; cited from earlier work
[3] = cited from earlier work
[4] = 5% aqueous solution of glyceryl monocaprylate; Okumura et al. 1989; cited from earlier work
[5] = SOL I. Rajifer et al. 1986; cited from earlier work
[6] = oral drug; E. Lodola et al. 1986; cited from earlier work
[7] = 10% by weight in propylene glycol, 32° C.
[8] = Test Examples 2 to 4, FIGS. 2 to 4, 10% by weight in propylene glycol, 32° C.

## CC(C)C(=O)Oc1ccc(CCN)cc1OC(=O)C(C)C.Cl [3,4-di-O-isobutyryldopamine hydrochloride]
[1]; [7]
  skin permeability on adding a lactic acid ester: extremely elevated
[1]; 32° C.
  skin permeability on adding a higher alcohol: extremely elevated

## CNCCc1ccc(OC(=O)C(C)C)c(OC(=O)C(C)C)c1 [3,4-di-O-isobutyrylepinine hydrochloride]
[1]; [8]
  skin permeability on adding a lactic acid ester or a fatty acid monoglyceride: extremely elevated
[1]; 32° C.
  skin permeability on adding a higher alcohol: extremely elevated

## CCCC(=O)Oc1ccc(CCN)cc1OC(=O)CCC [3,4-di-O-n-butyryldopamine hydrochloride]
[1]
  decomposition after penetrating into the skin: considerably decomposed
  skin permeability on adding a lactic acid ester or a fatty acid monoglyceride: extremely elevated

## Cl.NCCc1ccc(OC(=O)c2cccnc2)c(OC(=O)c2cccnc2)c1 [3,4-di-O-nicotinoyldopamine hydrochloride]
[1]; [8]
  skin permeability on adding a lactic acid ester or a fatty acid monoglyceride: extremely elevated
[1]; 32° C.
  skin permeability on adding a higher alcohol: extremely elevated

## CC(C)(C)C(=O)Oc1ccc(CCN)cc1OC(=O)C(C)(C)C.Cl [3,4-di-O-pivaloyldopamine hydrochloride]
[1]; [7]
  skin permeability on adding a lactic acid ester: extremely elevated
[1]; 32° C.
  skin permeability on adding a higher alcohol: extremely elevated

## NCCc1ccc(O)c(O)c1 [Dopamine]
[2]
  absorption when administered orally or percutaneously: scarcely absorbed

## CC(CCc1ccc(O)cc1)NCCc1ccc(O)c(O)c1 (centres unmarked) [dobutamine]
[2]
  absorption when administered orally or percutaneously: scarcely absorbed

## Cl.NCCc1ccc(O)c(O)c1 [dopamine hydrochloride]
[3]; if percutaneously absorbed
  skin damage: causes skin damage
[3]; percutaneous
  irritation to the skin: highly irritative to the skin
[4]
  percutaneous penetration rate relative to dopamine hydrochloride alone: 34 times

## CNCCc1ccc(OC(=O)C(C)C)c(OC(=O)C(C)C)c1 [ibopamine]
[5]
  duration of the effect on improvement of the circulation (cardiac coefficient): 3 to 6 h
[6]
  half-life in plasma: 1.54 h
